# How the values were obtained:
# [1] = test system: IL8; assay: ELISA of fallopian culture medium: IL8; assay type: cell-based, human; conditions: 10 nM E2, 7 days, conditioned medium, n=7
# Experimental: Tissues were micro-dissected in alpha-MEM (Gibco, Carlsbad, Calif.) with 1% penicillin-streptomycin (Invitrogen, Carlsbad, Calif.). Individual fimbriae were separated into ˜50 mm^3 pieces. A portion of the tissue was fixed in 2% paraformaldehyde for use as an uncultured control. For optimization studies, fimbriae were cultured without matrix, encapsulated in 0.5% alginate, or encapsulated in 0.5% alginate with 1 mg/ml collagen and 0.1% fibronectin, as previously described for murine cultures (King et al. J Vis Exp. 2011.; herein incorporated by reference in its entirety). For subsequent treatments, 0.5% alginate encapsulated fimbriae were randomly assigned to treatment groups, with at least five fimbriae per condition, per patient, in a 24-well plate containing alpha-MEM and 1% penicillin-streptomycin. […] Prior to fixation, fimbriae were labeled with 10 μM bromodeoxyurine (BrdU, Sigma-Aldrich) for 24 hours to denote proliferating cells. […]
# IL8, VEGF-A, and FGF2 were detected in fallopian culture medium by enzyme-linked immunosorbent assay for human IL8 (EMD Millipore, Billerica, Mass., USA), VEGF-A (RayBiotech, GA, USA), or FGF2 (Abcam) respectively using the manufacturers' protocols. […] Results were normalized to total protein content as determined by western blotting and Ponceau staining to account for difference in tissue size between treatment groups. […]
# [2] = test system: IGF1 secretion by human fallopian epithelium; assay: hIGF1 immunoblot of fallopian epithelium conditioned medium; assay type: cell-based
# Experimental: (§1) Human fallopian tissue was obtained from routine hysterectomies from women in their reproductive years (ages range from 26 to 50 years old) and who had not undergone exogenous hormonal treatment for at least three months prior to surgery. Informed consent was obtained from each patient and approval granted by the ethics committee of the Northwestern University. Human fallopian tissue was kept in the DMEM/F12 medium with 10% FBS on ice and processed within 24 hours. The tissue was washed with warm PBS solution two times before being transferred into warm dissection medium (Liebowitz 15 with 0.5% P/S and 10% FBS). After cleaning connective tissue from outside of the fallopian tissue, the fallopian tube was cut open and the inner epithelia layer was mechanically dissected using forceps. […] Tissue was cultured on 0.4 μm pore Millicell inserts (PICM03050, EMD Millipore Co, Billerica, Mass., USA) twelve-well plates with culture medium in a 37° C. and 5% CO2 incubator. Estrogen (E2) and progesterone (P4) used in tissue culture experiments were purchased from Sigma (St. Louis, Mo.).
# (§2) Cultured human fallopian epithelia layers were homogenized with a minipestle in ice-cold lysis buffer (20 mM Tris-HCl, pH 8.0, 137 mM NaCl, 10% glycerol, 1% NP-40, 2 mM EDTA). Lysate normalized for protein content was loaded into NuPAGE 4-12% gradient Bis-Tris precast SDS-PAGE gels and transferred to a nitrocellulose membrane (Life Technologies, Carlsbad, Calif., USA). Blots were probed by polyclonal anti-OVGP1 antibody (LsBio, Cambridge, Mass.) overnight in 4° C. followed by anti-rabbit secondary antibody conjugated to horseradish peroxidase (Zymed, San Francisco, Calif.). Proteins were detected by ECL primer (GE HealthCare Life Sciences, Pittsburgh, Pa.) and exposed to X-ray film (Kodak, Rochester, N.Y.). The same blot was stripped using stripping buffer (Thermo Scientific, Hanover Park, Ill.) and re-probed with monoclonal anti-α-tubulin (Sigma, St. Louis, Mo.) followed by an anti-mouse secondary antibody conjugated to horseradish peroxidase. NIH ImageJ Imaging Software was used to quantify the density of western blot bands. Conditioned medium from fallopian epithelia cultures was collected and probed via western blot analysis using a polyclonal anti-hIGF1 antibody (abcam, Cambridge, Mass.). The blot was detected by the same method described above.
# Fallopian epithelia layers cultured on […] inserts were pre-cultured in the alpha-MEM with 0.3% BSA, ITS and 1% P/S medium for two days. Cell culture medium was collected for the glucose ELISA assay (abcam, Cambridge, Mass.). Medium was diluted 1:500 and ELISA was performed according to the protocol provided by the kit. […]
# [3] = test system: OVGP1 expression in human fallopian epithelium; assay: OVGP1 immunoblot of cultured fallopian epithelium lysate; assay type: cell-based
# Experimental: as §1, §2
# [4] = test system: progesterone receptor (PR) expression in human fimbriae; assay: 3D human fimbriae culture: progesterone receptor immunohistochemistry; assay type: cell-based; conditions: 1 nM and 10 nM E2
# Experimental: (§3) Tissues were micro-dissected in alpha-MEM (Gibco, Carlsbad, Calif.) with 1% penicillin-streptomycin (Invitrogen, Carlsbad, Calif.). Individual fimbriae were separated into ˜50 mm^3 pieces. A portion of the tissue was fixed in 2% paraformaldehyde for use as an uncultured control. For optimization studies, fimbriae were cultured without matrix, encapsulated in 0.5% alginate, or encapsulated in 0.5% alginate with 1 mg/ml collagen and 0.1% fibronectin, as previously described for murine cultures (King et al. J Vis Exp. 2011.; herein incorporated by reference in its entirety). For subsequent treatments, 0.5% alginate encapsulated fimbriae were randomly assigned to treatment groups, with at least five fimbriae per condition, per patient, in a 24-well plate containing alpha-MEM and 1% penicillin-streptomycin. […] Prior to fixation, fimbriae were labeled with 10 μM bromodeoxyurine (BrdU, Sigma-Aldrich) for 24 hours to denote proliferating cells. Fimbriae cultures were fixed (2% paraformaldehyde) followed by dehydration in ethanol and xylene, and embedment in paraffin.
# Sections (5 μm) were cut and stained via hematoxylin and eosin for morphological analysis or immunohistochemistry was performed to localize proteins of interest as previously described (King et al. Endocr Relat Cancer. 2011. 18:627-42.; herein incorporated by reference in its entirety). […]
# [5] = test system: human fallopian fimbriae FTE; assay: 3D human fimbriae culture: FTE proliferation by BrdU labeling; assay type: cell-based; conditions: insulin 5 μg/ml (ITS), H2O2 1 mM, E2 10 nM, n=6
# Experimental: as §3
# Sections (5 μm) were cut and stained via hematoxylin and eosin for morphological analysis or immunohistochemistry was performed to localize proteins of interest as previously described (King et al. Endocr Relat Cancer. 2011. 18:627-42.; herein incorporated by reference in its entirety). Slides were rehydrated through an ethanol gradient, prior to 0.1M sodium citrate retrieval and peroxidase block. Tissues probed for BrdU were exposed to 4M HCl and 0.1M NaB4O7(Fisher Scientific) to denature DNA. All immunohistochemical reagents were obtained from Vector Laboratories, Inc (Burlingame, Calif.) unless otherwise stated. Tissues were blocked in 3% bovine serum albumin (Gemini, West Sacramento, Calif.)-TBS/10% serum and incubated with a primary antibody 1:50 acetylated tubulin (Cell Signaling, Cambridge, Mass.); 1:200 BrdU (AbCam, Cambridge, Mass.); 1:100 cytokeratin 8 (CK8, Developmental Studies Hybridoma Bank, Iowa City, Iowa); 1:50 p53 (Santa Cruz, Santa Cruz, Calif.); 1:100 PAX8 (Proteintech, Chicago, Ill.); 1:100 pH2AX (Cell Signaling); or 1:75 PR (Santa Cruz)) overnight at 4°. Tissues were washed in TBS-0.1% Tween and incubated with a secondary antibody (1:200), before being probed with ABC peroxidase standard, followed by detection with 3,3′-diaminobenzidine (DAB) and counterstained with hematoxylin.
# Immunohistochemistry images were taken via a Nikon E600 microscope, DXM1200 digital camera and NIS Elements software (Nikon Instruments, Melville, N.Y.). For proliferation analysis, concurrent sections were stained for CK8 and BrdU. BrdU sections were imaged and epithelial cells (CK8 positive) were quantified for proliferation via ImageJ software (NIH, Bethesda, Md.). At least three fimbriae with 200 or more FTE were quantified for each treatment. […] Samples with p53 expression were quantified utilizing adjacent sections stained for the secretory cell marker PAX8 in a qualitative manner as described.
# [6] = 28 days stepwise E2 and P4 treatment, P4 in the presence of E2
compound,measurement,setting,value
"C[C@]12CC[C@@H]3c4ccc(O)cc4CC[C@H]3[C@@H]1CC[C@@H]2O [E2, estradiol]",IL8 increase compared to vehicle control,[1],22%±13%
same,IGF1 secretion,"[2]; 7 days culture, 1 nM E2, P4 added to E2",induced
same,IGF1 secretion,[2]; [6],stimulated
same,OVGP1 expression in the fallopian lysate,"[3]; 7 days culture, P4 added to E2",induction
same,OVGP1 expression,[3]; [6],stimulated
same,progesterone receptor (PR) expression compared to vehicle control,[4],induction
same,"FTE proliferation (percentage of total FTE cells, BrdU)",[5]; 2 days in culture,5.2±2.3%
same,"FTE proliferation (percentage of total FTE cells, BrdU)",[5]; 7 days in culture,2.4±0.5%

# Source: patent US11542475B2, “3D microphysiologic system” (Northwestern University, priority 2014, dated 2023)
